Laboratory results as given in the NIST ThermoML archive (doi:10.1016/j.jct.2010.08.021).
± gives the expanded uncertainty stated by the source.

Assay: mn = molality of the nth substance listed, in mol/kg
Conditions: 101 kPa, Liquid; for speed of sound: Sing-around technique in a fixed-path interferometer; for mass density: Vibrating tube method

NCC(=O)O [2-aminoacetic acid] + O
Conditions	mass density [kg/m3]	speed of sound [m/s]
288.15 K, m1 = 0.0303	1000.1 ± 0.11	1468.3 ± 1.3
288.15 K, m1 = 0.0407	1000.43 ± 0.11	1468.9 ± 1.3
288.15 K, m1 = 0.0487	1000.69 ± 0.11	1469.4 ± 1.3
288.15 K, m1 = 0.0549	1000.89 ± 0.11	1469.7 ± 1.3
288.15 K, m1 = 0.0649	1001.22 ± 0.11	1470.3 ± 1.3
288.15 K, m1 = 0.066	1001.25 ± 0.11	1470.3 ± 1.3
288.15 K, m1 = 0.0799	1001.7 ± 0.11	1471.1 ± 1.3
288.15 K, m1 = 0.0959	1002.22 ± 0.11	1472 ± 1.3
288.15 K, m1 = 0.1125	1002.76 ± 0.11	1472.9 ± 1.3
288.15 K, m1 = 0.1349	1003.48 ± 0.11	1474.1 ± 1.3
288.15 K, m1 = 0.1608	1004.3 ± 0.11	1475.5 ± 1.3
288.15 K, m1 = 0.1908	1005.26 ± 0.11	1477.2 ± 1.3
288.15 K, m1 = 0.2165	1006.07 ± 0.11	1478.6 ± 1.3
288.15 K, m1 = 0.2303	1006.51 ± 0.11	1479.4 ± 1.3
288.15 K, m1 = 0.2506	1007.15 ± 0.11	1480.5 ± 1.3
288.15 K, m1 = 0.2735	1007.87 ± 0.11	1481.8 ± 1.3
293.15 K, m1 = 0.0303	999.187 ± 0.11	1484.4 ± 1.3
293.15 K, m1 = 0.0407	999.52 ± 0.11	1484.9 ± 1.3
293.15 K, m1 = 0.0487	999.773 ± 0.11	1485.4 ± 1.3
293.15 K, m1 = 0.0549	999.972 ± 0.11	1485.7 ± 1.3
293.15 K, m1 = 0.0649	1000.29 ± 0.15	1486.2 ± 1.3
293.15 K, m1 = 0.066	1000.32 ± 0.12	1486.3 ± 1.3
293.15 K, m1 = 0.0799	1000.77 ± 0.11	1487 ± 1.3
293.15 K, m1 = 0.0959	1001.28 ± 0.11	1487.9 ± 1.3
293.15 K, m1 = 0.1125	1001.81 ± 0.11	1488.8 ± 1.3
293.15 K, m1 = 0.1349	1002.52 ± 0.11	1489.9 ± 1.3
293.15 K, m1 = 0.1608	1003.34 ± 0.11	1491.3 ± 1.3
293.15 K, m1 = 0.1908	1004.28 ± 0.11	1493 ± 1.3
293.15 K, m1 = 0.2165	1005.08 ± 0.11	1494.4 ± 1.3
293.15 K, m1 = 0.2303	1005.52 ± 0.11	1495.1 ± 1.3
293.15 K, m1 = 0.2506	1006.15 ± 0.11	1496.2 ± 1.3
293.15 K, m1 = 0.2735	1006.86 ± 0.11	1497.4 ± 1.3
298.15 K, m1 = 0.0303	–	1498.6 ± 1.2
298.15 K, m1 = 0.0407	998.344 ± 0.11	1499.1 ± 1.2
298.15 K, m1 = 0.0487	–	1499.5 ± 1.2
298.15 K, m1 = 0.0549	998.79 ± 0.11	1499.9 ± 1.2
298.15 K, m1 = 0.0649	999.104 ± 0.15	1500.4 ± 1.2
298.15 K, m1 = 0.066	999.138 ± 0.11	1500.4 ± 1.2
298.15 K, m1 = 0.0799	999.58 ± 0.11	1501.2 ± 1.2
298.15 K, m1 = 0.0959	1000.09 ± 0.11	1502 ± 1.2
298.15 K, m1 = 0.1125	1000.61 ± 0.11	1502.9 ± 1.2
298.15 K, m1 = 0.1349	1001.31 ± 0.11	1504 ± 1.2
298.15 K, m1 = 0.1608	1002.12 ± 0.11	1505.3 ± 1.2
298.15 K, m1 = 0.1908	1003.05 ± 0.11	1506.9 ± 1.2
298.15 K, m1 = 0.2165	1003.84 ± 0.11	1508.2 ± 1.2
298.15 K, m1 = 0.2303	1004.27 ± 0.11	1508.9 ± 1.2
298.15 K, m1 = 0.2506	1004.9 ± 0.11	1510 ± 1.2
298.15 K, m1 = 0.2735	1005.61 ± 0.11	1511.2 ± 1.2
303.15 K, m1 = 0.0303	996.608 ± 0.11	1510.9 ± 1.2
303.15 K, m1 = 0.0407	996.933 ± 0.11	1511.4 ± 1.2
303.15 K, m1 = 0.0487	–	1511.8 ± 1.2
303.15 K, m1 = 0.0549	997.375 ± 0.11	1512.2 ± 1.2
303.15 K, m1 = 0.0649	–	1512.7 ± 1.2
303.15 K, m1 = 0.066	–	1512.7 ± 1.2
303.15 K, m1 = 0.0799	998.158 ± 0.11	1513.4 ± 1.2
303.15 K, m1 = 0.0959	998.661 ± 0.11	1514.3 ± 1.2
303.15 K, m1 = 0.1125	999.18 ± 0.11	1515.1 ± 1.2
303.15 K, m1 = 0.1349	999.878 ± 0.11	1516.2 ± 1.2
303.15 K, m1 = 0.1608	1000.67 ± 0.11	1517.5 ± 1.2
303.15 K, m1 = 0.1908	1001.6 ± 0.11	1519 ± 1.2
303.15 K, m1 = 0.2165	1002.38 ± 0.11	1520.3 ± 1.2
303.15 K, m1 = 0.2303	1002.81 ± 0.11	1521 ± 1.2
303.15 K, m1 = 0.2506	1003.43 ± 0.11	1522 ± 1.2
303.15 K, m1 = 0.2735	1004.13 ± 0.11	1523.2 ± 1.2
308.15 K, m1 = 0.0303	994.983 ± 0.11	1521.5 ± 1.2
308.15 K, m1 = 0.0407	–	1522 ± 1.2
308.15 K, m1 = 0.0487	995.552 ± 0.11	1522.5 ± 1.2
308.15 K, m1 = 0.0549	–	1522.8 ± 1.2
308.15 K, m1 = 0.0649	–	1523.3 ± 1.2
308.15 K, m1 = 0.066	–	1523.3 ± 1.2
308.15 K, m1 = 0.0799	–	1524 ± 1.2
308.15 K, m1 = 0.0959	997.02 ± 0.11	1524.8 ± 1.2
308.15 K, m1 = 0.1125	997.536 ± 0.11	1525.6 ± 1.2
308.15 K, m1 = 0.1349	998.23 ± 0.11	1526.7 ± 1.2
308.15 K, m1 = 0.1608	999.021 ± 0.11	1528 ± 1.2
308.15 K, m1 = 0.1908	999.936 ± 0.11	1529.5 ± 1.2
308.15 K, m1 = 0.2165	1000.72 ± 0.11	1530.7 ± 1.2
308.15 K, m1 = 0.2303	1001.14 ± 0.11	1531.4 ± 1.2
308.15 K, m1 = 0.2506	1001.76 ± 0.11	1532.4 ± 1.2
308.15 K, m1 = 0.2735	1002.45 ± 0.11	1533.5 ± 1.2
313.15 K, m1 = 0.0303	993.159 ± 0.11	1530.6 ± 1.2
313.15 K, m1 = 0.0407	993.481 ± 0.11	1531.1 ± 1.2
313.15 K, m1 = 0.0487	993.725 ± 0.11	1531.5 ± 1.2
313.15 K, m1 = 0.0549	993.917 ± 0.11	1531.8 ± 1.2
313.15 K, m1 = 0.0649	994.224 ± 0.11	1532.3 ± 1.2
313.15 K, m1 = 0.066	994.257 ± 0.11	1532.3 ± 1.2
313.15 K, m1 = 0.0799	994.689 ± 0.11	1533 ± 1.2
313.15 K, m1 = 0.0959	995.187 ± 0.11	1533.8 ± 1.2
313.15 K, m1 = 0.1125	–	1534.6 ± 1.2
313.15 K, m1 = 0.1349	–	1535.6 ± 1.2
313.15 K, m1 = 0.1608	–	1536.9 ± 1.2
313.15 K, m1 = 0.1908	998.083 ± 0.11	1538.3 ± 1.2
313.15 K, m1 = 0.2165	–	1539.5 ± 1.2
313.15 K, m1 = 0.2303	999.28 ± 0.11	1540.2 ± 1.2
313.15 K, m1 = 0.2506	999.893 ± 0.11	1541.2 ± 1.2
313.15 K, m1 = 0.2735	1000.58 ± 0.11	1542.3 ± 1.2
